According to PubChem BioAssay AID330 (DTP/NCI, 2004):
Values joined by “and” are separate entries in the source; they are usually repeats but may differ in a detail not shown here. Identical values can stand only once. Inconclusive results and toxic doses are left out. How the source made its calls: active means survival T/C of 150% or more; inactive means T/C below 125% in these data. Peptide text beside a SMILES is read from it.

System: P388 leukemia ip, CD2F1 mice, survival T/C
Experiment: NCI In Vivo Anticancer Drug Screen. Data for tumor model P388 Leukemia (intraperitoneal) in CD2F1 (CDF1) mice
Details: endpoint: median survival time, higher = longer survival
Summary of the method: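 Mice carrying the transplanted tumor received test compound or vehicle. Survival was recorded in each group, and the value is the treated-group measurement divided by that of the vehicle-treated control group.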

[1] = dose: 60.0 mg/kg/injection, schedule: Q01DX005 (ip), vehicle: saline
[2] = dose: 120.0 mg/kg/injection, schedule: Q01DX005 (ip), vehicle: saline
[3] = dose: 240.0 mg/kg/injection, schedule: Q01DX005 (ip), vehicle: saline
[4] = dose: 50.0 mg/kg/injection, schedule: Q01DX005 (ip), vehicle: saline with Tween-80
[5] = dose: 100.0 mg/kg/injection, schedule: Q01DX005 (ip), vehicle: saline with Tween-80
[6] = dose: 200.0 mg/kg/injection, schedule: Q01DX005 (ip), vehicle: saline with Tween-80

Measured: T/C

CC1(C)OC2OC3C(O)C(=O)OC3C2O1 (stereo not drawn)
inactive: [1] 107 % of control | [2] 97 % of control | [3] 99 % of control

NC(Cc1cnc[nH]1)C(=O)NC(CO)C(=O)O (stereo not drawn) (H-His-Ser-OH; configuration not given here)
inactive: [1] 96 % of control | [2] 99 % of control | [3] 100 % of control

CC(C)CC(NC(=O)C(Cc1ccccc1)NC(=O)OCCc1ccccn1)C(=O)OC(C)(C)C (stereo not drawn)
inactive: [1] 101 % of control | [2] 95 % of control | [3] 87 % of control

Cc1ccc(S(=O)(=O)CC2(Br)CCc3ccccc3C2=O)cc1 (stereo not drawn)
inactive: dose: 100.0 mg/kg/injection, schedule: Q04DX003 (ip), vehicle: saline 97 % of control | dose: 200.0 mg/kg/injection, schedule: Q04DX003 (ip), vehicle: saline 91 % of control | dose: 400.0 mg/kg/injection, schedule: Q04DX003 (ip), vehicle: saline 95 % of control

CCCN=C(c1ccccc1C=O)c1c2ccccc2cn1CCC
inactive: dose: 7.5 mg/kg/injection, schedule: Q01DX005 (ip), vehicle: saline + Tween-80 + alcohol 114 % of control | dose: 15.0 mg/kg/injection, schedule: Q01DX005 (ip), vehicle: saline + Tween-80 + alcohol 124 % of control | dose: 30.0 mg/kg/injection, schedule: Q01DX005 (ip), vehicle: saline + Tween-80 + alcohol 119 % of control

Oc1c(Cl)cc(Cl)cc1/C=N/Nc1ccc2ccccc2n1
inactive: dose: 50.0 mg/kg/injection, schedule: Q04DX003 (ip), vehicle: saline with Tween-80 89 % of control | dose: 100.0 mg/kg/injection, schedule: Q04DX003 (ip), vehicle: saline with Tween-80 94 % of control | dose: 200.0 mg/kg/injection, schedule: Q04DX003 (ip), vehicle: saline with Tween-80 100 % of control

Cc1cc2c(c3c1c(=O)c1ccccc1n3C)C=CC(C)(C)O2
inactive: [4] 114 % of control | [5] 108 % of control | [6] 120 % of control | dose: 300.0 mg/kg/injection, schedule: Q01DX005 (ip), vehicle: saline with Tween-80 120 % of control

COc1ccc(C=NC#N)cc1
inactive: dose: 50.0 mg/kg/injection, schedule: Q01DX009 (ip), vehicle: Klucel (hydroxypropylcellulose) (HPC) 101 % of control | dose: 100.0 mg/kg/injection, schedule: Q01DX009 (ip), vehicle: Klucel (hydroxypropylcellulose) (HPC) 93 % of control | dose: 200.0 mg/kg/injection, schedule: Q01DX009 (ip), vehicle: Klucel (hydroxypropylcellulose) (HPC) 88 % of control

COc1ccc(C2(c3ccc(OC)cc3)N=NC3(C)CC32)cc1 (stereo not drawn)
inactive: dose: 100.0 mg/kg/injection, schedule: Q01DX001 (ip), vehicle: saline with Tween-80 92 % of control | dose: 200.0 mg/kg/injection, schedule: Q01DX001 (ip), vehicle: saline with Tween-80 89 % of control | dose: 400.0 mg/kg/injection, schedule: Q01DX001 (ip), vehicle: saline with Tween-80 86 % of control

Cc1[nH]c(C)c(Br)c(=O)c1F
inactive: dose: 6.25 mg/kg/injection, schedule: Q01DX009 (ip), vehicle: Klucel (hydroxypropylcellulose) (HPC) 116 % of control | dose: 12.5 mg/kg/injection, schedule: Q01DX009 (ip), vehicle: Klucel (hydroxypropylcellulose) (HPC) 110 % of control | dose: 25.0 mg/kg/injection, schedule: Q01DX009 (ip), vehicle: Klucel (hydroxypropylcellulose) (HPC) 100 % of control

O=C(c1cc2c(cc1[N+](=O)[O-])OCO2)N1CCc2ccccc21
inactive: dose: 3.13 mg/kg/injection, schedule: Q01DX009 (ip), vehicle: saline with Tween-80 99 % of control | dose: 6.25 mg/kg/injection, schedule: Q01DX009 (ip), vehicle: saline with Tween-80 99 % of control | dose: 12.5 mg/kg/injection, schedule: Q01DX009 (ip), vehicle: saline with Tween-80 96 % of control | dose: 25.0 mg/kg/injection, schedule: Q01DX009 (ip), vehicle: other 99 % of control | dose: 25.0 mg/kg/injection, schedule: Q01DX009 (ip), vehicle: saline with Tween-80 94 % of control | dose: 50.0 mg/kg/injection, schedule: Q01DX009 (ip), vehicle: other 100 % of control | dose: 100.0 mg/kg/injection, schedule: Q01DX009 (ip), vehicle: other 107 % of control | dose: 200.0 mg/kg/injection, schedule: Q01DX009 (ip), vehicle: other 89 % of control

COc1cc(C2c3cc(O)c(OC)cc3CC(C(N)=O)C2CO)ccc1O (stereo not drawn)
inactive: [4] 100 % of control | [5] 100 % of control | [6] 98 % of control

O=C(Cn1ccc(O)cc1=O)N1CCOCC1
inactive: dose: 100.0 mg/kg/injection, schedule: Q04DX003 (ip), vehicle: water 95 % of control | dose: 200.0 mg/kg/injection, schedule: Q04DX003 (ip), vehicle: water 90 % of control | dose: 400.0 mg/kg/injection, schedule: Q04DX003 (ip), vehicle: water 100 % of control

CC12CCC(O)CC1CCC1C2CCC2(C)C(c3ccc(=O)oc3)CC3OC312 (stereo not drawn)
inactive: dose: 0.31 mg/kg/injection, schedule: Q01DX009 (ip), vehicle: saline with Tween-80 108 % of control | dose: 0.62 mg/kg/injection, schedule: Q01DX009 (ip), vehicle: saline with Tween-80 100 % of control | dose: 1.25 mg/kg/injection, schedule: Q01DX009 (ip), vehicle: saline with Tween-80 104 % of control | dose: 2.5 mg/kg/injection, schedule: Q01DX009 (ip), vehicle: saline with Tween-80 115 % of control | dose: 5.0 mg/kg/injection, schedule: Q01DX009 (ip), vehicle: saline with Tween-80 100 % of control and 87 % of control | dose: 10.0 mg/kg/injection, schedule: Q01DX009 (ip), vehicle: saline with Tween-80 87 % of control | dose: 20.0 mg/kg/injection, schedule: Q01DX009 (ip), vehicle: saline with Tween-80 88 % of control

CC(=O)OCCOCNC(=S)NN
inactive: dose: 60.0 mg/kg/injection, schedule: Q01DX005 (ip), vehicle: saline with Tween-80 101 % of control | dose: 120.0 mg/kg/injection, schedule: Q01DX005 (ip), vehicle: saline with Tween-80 101 % of control | dose: 240.0 mg/kg/injection, schedule: Q01DX005 (ip), vehicle: saline with Tween-80 90 % of control

COc1cc2cccc(OC)c(=O)c2c(O)c1OC
inactive: dose: 50.0 mg/kg/injection, schedule: Q01DX005 (ip), vehicle: Klucel (hydroxypropylcellulose) (HPC) 86 % of control | [4] 99 % of control | dose: 100.0 mg/kg/injection, schedule: Q01DX005 (ip), vehicle: Klucel (hydroxypropylcellulose) (HPC) 88 % of control | [5] 95 % of control | dose: 200.0 mg/kg/injection, schedule: Q01DX005 (ip), vehicle: Klucel (hydroxypropylcellulose) (HPC) 88 % of control | [6] 91 % of control

COc1c2occc2c(OC(C)C(=O)O)c2c(O)cc(=O)oc12 (stereo not drawn)
inactive: [4] 95 % of control | [5] 101 % of control | [6] 95 % of control

COc1cc2c(cc1OC)C(C)C1c3cc4c(cc3CCN1C2)OCO4 (stereo not drawn)
inactive: dose: 50.0 mg/kg/injection, schedule: Q04DX003 (ip), vehicle: distilled water + Tween-80 103 % of control and 100 % of control | dose: 100.0 mg/kg/injection, schedule: Q04DX003 (ip), vehicle: distilled water + Tween-80 97 % of control and 103 % of control | dose: 200.0 mg/kg/injection, schedule: Q04DX003 (ip), vehicle: distilled water + Tween-80 99 % of control and 103 % of control | dose: 400.0 mg/kg/injection, schedule: Q04DX003 (ip), vehicle: distilled water + Tween-80 103 % of control
